Legend:
platelets = assay: Cell viability assay for platelets (platelet rich plasma, CellTiter-Glo); type: cell-based; conditions: approximately 4 hours at 37 C
Description: Platelet rich plasma (PRP) was incubated with a compound of the invention for approximately 4 hours at 37° C. After incubation, platelets were equilibrated to room temperature for 20 minutes and then and equal volume of CELL TITER-GLO™ reagent (Promega Corporation) was added. Samples were mixed for two minutes and then allowed to equilibrate for an additional 10 minutes at room temperature. The luminescence generated from the samples was quantitated using a LJL Analyst plate reader. Data analysis was performed using GraphPad Prism 4.0.

Bcl-xL (GST-Bcl-xL) [1] = biological target: T1, Bcl-xL (GST-Bcl-xL) (Homo sapiens, UniProt Q07817); assay: TR-FRET binding assay, competition with F-Bak for the Bcl-xL binding site; conditions: values listed in the order of Table 1, read-out: TR-FRET assay results (Ki), Bcl-xL
T1 sequence (Q07817 whole entry, species assumed): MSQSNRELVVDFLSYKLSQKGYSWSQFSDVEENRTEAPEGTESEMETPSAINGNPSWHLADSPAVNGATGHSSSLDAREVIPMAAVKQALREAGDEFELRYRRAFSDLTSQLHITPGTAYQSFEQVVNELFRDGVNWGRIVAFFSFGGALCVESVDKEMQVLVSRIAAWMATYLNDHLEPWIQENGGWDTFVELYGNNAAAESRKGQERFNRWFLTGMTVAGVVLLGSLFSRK

Bcl-2 (GST-Bcl-2) = biological target: T2, Bcl-2 (GST-Bcl-2) (Homo sapiens, UniProt P10415); assay: TR-FRET binding assay, competition with F-Bak for the Bcl-2 binding site; conditions: Bcl-2, for comparison (selectivity)
T2 construct: made in house
T2 sequence (P10415 whole entry, species assumed): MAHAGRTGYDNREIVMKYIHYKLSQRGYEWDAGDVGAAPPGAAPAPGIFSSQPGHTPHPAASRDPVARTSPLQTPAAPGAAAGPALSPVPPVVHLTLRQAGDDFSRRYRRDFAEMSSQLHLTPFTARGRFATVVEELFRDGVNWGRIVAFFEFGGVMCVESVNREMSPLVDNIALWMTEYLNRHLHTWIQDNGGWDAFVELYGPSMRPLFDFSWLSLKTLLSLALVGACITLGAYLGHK
Description: For each assay plate, a probe/antibody and protein/antibody/probe mixture were included as a negative and a positive control, respectively. Fluorescence was measured on the Envision (Perkin Elmer) using a 340/35 nm excitation filter and 520/525 (F-Bak) and 495/510 nm (Tb-labeled anti-his antibody) emission filters. Dissociation constants (Ki) were determined using Wang's equation (see, Wang, Z. X. An exact mathematical expression for describing competitive binding of two different ligands to a protein molecule. FEBS Lett. 1995 360:111-114). The TR-FRET assay can be performed in the presence of varying concentrations of human serum (HS) or fetal bovine serum (FBS). For comparison, the measurement of the competition of compounds of the invention for other Bcl-2 family protein binding sites (e.g., Bcl-2, Mcl-1) using the TR-FRET binding assay was accomplish by substituting GST-Bcl-xL in the TR-FRET assay with other GST-labeled protein, e.g., GST-Bcl-2, GST-Mcl-1, prepared in-house.

[2] = test system: Mcl-1-/- mouse embryonic fibroblasts (MEF); assay: Cell viability assay for Mcl-1-/- mouse embryonic fibroblasts (CellTiter-Glo); type: cell-based; conditions: Fibroblast, in the presence of 10% Fetal Bovine Serum, read-out: MEF Mcl-1-/- KO cell viability results (EC50)
Text: a. Cell Viability Assay for Mcl-1^−/− Mouse Embryonic Fibroblasts (MEF): […]
In this assay, Mcl-1^(−/−) cells were used to confirm that cell apoptosis in the presence of BH3 mimetic small molecules was due to predominantly Bcl-xL inactivation. This inactivation leaves Bax/Bak unconstrained and results in apoptosis. The […]-GLO Luminescent Cell Viability Assay is a homogeneous method of determining the number of viable cells in culture based on quantitation of the ATP present. The amount of ATP correlates with the presence of metabolically active cells such that following cell lysis the amount of ATP present is proportional to the amount of luminescence measured.
Mcl-1^(−/−) mouse embryonic fibroblasts (MEFs) are an adherent cell line prepared in house. MEFs were grown in Iwaki 75 cm^2 tissue culture flasks (cat #3123-075) with FMA media which consists of • 89% DME Kelso • 10% heat-inactivated foetal calf serum (FCS) (Hyclone cat #SH30396.03) • 1% 10 mM asparagine (Fluka cat #11149) • 275 μl of a 1:2000 dilution of 2-mercaptoethanol is added to the final 500 ml volume of FMA (Sigma cat #M7522; diluted in MT-PBS)
FMA was stored at 4° C. and used at 37° C. MEFs were cultured in FMA media and harvested in MT-PBS and trypsin. For MEF cell viability assays, cells were seeded separately in plates with 10% FCS-FMA and 1% FCS-FMA.
Assays were performed using white, flat clear-bottom Greiner 384-well tissue culture grade (Interpath #781098) plates. The compounds were made up in Matrical 384-well, 25 μl V-bottomed plates (cat #MP101-2-PP), sealed with aluminium foil from Beckman Coulter (cat #538619) and stored at 12° C. overnight. Compound preparation and titrations were performed in AnalaR grade DMSO (Merck cat #1.02952.2500). The cell viability detection assay used was […]-GLO™ which is commercially available from Promega (cat #G7572), stored at −20° C. and used at 37° C.
Compounds of the invention were prepared as 10 mM solution in 100% DMSO and stored at −20° C. Compounds were thawed to room temperature and dispensed into a 384 well Matrical plate. Standard control compounds, e.g. 32.3 mM Etoposide, were added to the plate as controls.
The media was aspirated and the Mcl-1^(−/−) cells washed with 10 mls of warmed MT-PBS. MT-PBS was aspirated and 1 ml of trypsin was added. The T75 flasks were incubated at 37° C. until the cells became detached. 4 ml of 10% FCS FMA media was added to the trypsinized cells and the entire volume was transferred to a 50 ml centrifuge tube and centrifuged for 3 minutes at 250 g. The supernatant was aspirated and the pellet resuspended in 10 ml of 10% FCS FMA. 3 ml of this cell suspension was added to a clean 75 cm^2 flask containing 17 ml of 10% FCS FMA media, thus performing a 3:10 split. The remaining cell suspension was used to perform a 1:50 split into another 75 cm^2 flask for further culturing.
Cells were harvested as per method step 1 and the pellet resuspended in 3 mls 10% FCS FMA. Cell number was determined by counting in a Neubauer haemocytometer and the dilution calculated to achieve a density of 1×10^4 cells ml^−1 (500 cells per well in 50 μl media). Separate dilutions were prepared in 50 ml 10% FCS FMA and 50 ml 1% FCS FMA solutions respectively.
Four assay plates were set up per compound plate. Two 384 well plates containing Mcl-1^(−/−) cells in 10% FCS FMA and the other two plates containing Mcl-1^(−/−) cells in 1% FCS FMA.
Using the Multidrop, 25 μl cells were dispensed aseptically into all 384 wells of the assay plates. Plates were left to rest in a non-stacked layer at room temperature for approximately 30 minutes (minimizes edge-effects) and then were placed as a single layer in the 37° C. incubator. The plates were left to incubate overnight.
The compound plates were titrated by performing a 3-fold 11-point dilution series using 100% DMSO on the MiniTrak. Following titration of the compounds, 100 nl of compounds were added to the cell plates using the Zymark Sciclone Pintool. […]

Bcl-xL (GST-Bcl-xL) [3] = biological target: T1, Bcl-xL (GST-Bcl-xL); assay: AlphaScreen Bcl-xL binding assay, competition with biotinylated Bim peptide; parameters: made in house; conditions: values listed in the order of Table 1; read-out: Alphascreen results (IC50) against the Bcl-xL protein
Procedure, shortened: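 Acceptor beads with GST-Bcl-xL were combined with donor beads carrying biotinylated Bim peptide after each bead mix was preincubated 30 min at room temperature. Compounds in DMSO, 2-fold serially diluted, were incubated 30 min at room temperature before donor addition, with duplicate plates. Percent inhibition was taken against no-protein and DMSO controls, and IC50 was calculated.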

| SMILES | EC50 (platelets) [nM] | Ki (Bcl-xL (GST-Bcl-xL) [1]) [nM] | Ki (Bcl-2 (GST-Bcl-2)) [nM] | EC50 [2] [nM] | IC50 (Bcl-xL (GST-Bcl-xL) [3]) [nM] |
| --- | --- | --- | --- | --- | --- |
| CN(C)CCOc1ccc(-c2ccc(OCCCc3ccc(N4CCc5cccc(C(=O)Nc6nc7ccccc7s6)c5C4)nc3C(=O)O)cc2)nc1 [Example 95, 6-[8-(Benzothiazol-2-ylcarbamoyl)-3,4-dihydro-1H-isoquinolin-2-yl]-3-(3-{4-[5-(2-dimethylamino-ethoxy)-pyridin-2-yl]-phenoxy}-propyl)-pyridine-2-carboxylic acid] | 3 | 0.05 |  |  |  |
| CN1CCN(c2ncnc3c(-c4ccc(OCCCc5sc(N6CCc7cccc(C(=O)Nc8nc9ccccc9s8)c7C6)nc5C(=O)O)cc4)csc23)CC1 [Example 79, 2-[8-(Benzothiazol-2-ylcarbamoyl)-3,4-dihydro-1H-isoquinolin-2-yl]-5-(3-{4-[4-(4-methyl-piperazin-1-yl)-thieno[3,2-d]pyrimidin-7]-phenoxy}-propyl)-thiazole-4-carboxylic acid] | 3 | 0.1 |  |  |  |
| O=C(Nc1nc2ccccc2s1)c1cccc2c1CN(c1nc(C(=O)O)c(CCCOc3ccc(N4CCNCC4)cc3)s1)CC2 [Example 64, 2-[8-(Benzothiazol-2-ylcarbamoyl)-3,4-dihydro-1H-isoquinolin-2-yl]-5-[3-(4-piperazin-1-yl-phenoxy)-propyl]-thiazole-4-carboxylic acid] |  | 0.05 | 90 | 310 |  |
| CN(C)CCCc1ccc(OCCCc2ccc(N3CCc4cccc(C(=O)Nc5nc6ccccc6s5)c4C3)nc2C(=O)O)c(F)c1 [Example 100, 6-[8-(Benzothiazol-2-ylcarbamoyl)-3,4-dihydro-1H-isoquinolin-2-yl]-3-{3-[4-(3-dimethylamino-propyl)-2-fluoro-phenoxy]-propyl}-pyridine-2-carboxylic acid] |  | 0.5 | 219 | 399 |  |
| N#Cc1ncccc1-c1ccc(OCCCc2sc(N3CCc4cccc(C(=O)Nc5nc6ccccc6s5)c4C3)nc2C(=O)O)cc1 [Example 58, 2-[8-(Benzothiazol-2-ylcarbamoyl)-3,4-dihydro-1H-isoquinolin-2-yl]-5-{3-[4-(2-cyano-pyridin-3-yl)-phenoxy]-propyl}-thiazole-4-carboxylic acid] |  | 0.5 | 310 | 1300 |  |
| CN(C)CCOc1ccc(OCCCc2sc(N3CCc4cccc(C(=O)Nc5nc6ccccc6s5)c4C3)nc2C(=O)O)cc1 [Example 75, 2-[8-(Benzothiazol-2-ylcarbamoyl)-3,4-dihydro-1H-isoquinolin-2-yl]-5-{3-[4-(2-dimethylamino-ethoxy)-phenoxy]-propyl}-thiazole-4-carboxylic acid] | 9 | 0.05 |  |  | 0.1 |
| O=C(Nc1nc2ccccc2s1)c1cccc2c1CN(c1nc(C(=O)O)c(CCCOc3ccc(-c4ncccn4)cc3)s1)CC2 [Example 81, 2-[8-(Benzothiazol-2-ylcarbamoyl)-3,4-dihydro-1H-isoquinolin-2-yl]-5-[3-(4-pyrimidin-2-yl-phenoxy)-propyl]-thiazole-4-carboxylic acid] |  | 0.05 | 110 | 10 |  |
| CN(C)CCOc1ccc(-c2ccc(OCCCc3sc(N4CCc5cccc(C(=O)Nc6nc7ccccc7s6)c5C4)nc3C(=O)O)cc2)nc1 [Example 90, 2-[8-(Benzothiazol-2-ylcarbamoyl)-3,4-dihydro-1H-isoquinolin-2-yl]-5-(3-{4-[5-(2-dimethylamino-ethoxy)-pyridin-2-yl]-phenoxy}-propyl)-thiazole-4-carboxylic acid] | 3 | 0.05 |  |  |  |
| CN1CCN(c2cccc(OCCCc3sc(N4CCc5cccc(C(=O)Nc6nc7ccccc7s6)c5C4)nc3C(=O)O)c2)CC1 [Example 87, 2-[8-(Benzothiazol-2-ylcarbamoyl)-3,4-dihydro-1H-isoquinolin-2-yl]-5-{3-[3-(4-methyl-piperazin-1-yl)-phenoxy]-propyl}-thiazole-4-carboxylic acid] | 3 | 0.05 |  |  |  |
| O=C(Nc1nc2ccccc2s1)c1cccc2c1CN(c1nc(C(=O)O)c(CCCOc3ccc(-c4csc5c(NCCCN6CCCC6)ncnc45)cc3)s1)CC2 [Example 78, 2-[8-(Benzothiazol-2-ylcarbamoyl)-3,4-dihydro-1H-isoquinolin-2-yl]-5-(3-{4-[4-(3-pyrrolidin-1-yl-propylamino)-thieno[3,2-d]pyrimidin-7-yl]-phenoxy}-propyl)-thiazole-4-carboxylic acid] | 3 | 0.05 |  |  |  |
| O=C(Nc1nc2ccccc2s1)c1cccc2c1CN(c1ccc(CCCOc3ccc(-c4ncccn4)cc3)c(C(=O)O)n1)CC2 [Example 96, 6-[8-(Benzothiazol-2-ylcarbamoyl)-3,4-dihydro-1H-isoquinolin-2-yl]-3-[3-(4-pyrimidin-2-yl-phenoxy)-propyl]-pyridine-2-carboxylic acid] | 354 | 0.1 |  |  |  |
| N#Cc1nccnc1-c1ccc(OCCCc2sc(N3CCc4cccc(C(=O)Nc5nc6ccccc6s5)c4C3)nc2C(=O)O)cc1 [Example 86, 2-[8-(Benzothiazol-2-ylcarbamoyl)-3,4-dihydro-1H-isoquinolin-2-yl]-5-{3-[4-(3-cyano-pyrazin-2-yl)-phenoxy]-propyl}-thiazole-4-carboxylic acid] | 10 | 0.07 |  |  |  |
| CN(C)CCCNc1ncnc2c1cnn2-c1ccc(OCCCc2sc(N3CCc4cccc(C(=O)Nc5nc6ccccc6s5)c4C3)nc2C(=O)O)cc1 [Example 54, 2-(8-(benzo[d]thiazol-2-ylcarbamoyl)-3,4-dihydroisoquinolin-2(1H)-yl)-5-(3-(4-(4-(3-(dimethylamino)propylamino)-1H-pyrazolo[3,4-d]pyrimidin-1-yl)phenoxy)propyl)thiazole-4-carboxylic acid] | 132 | 0.05 |  |  |  |

From patent US8232273B2, “Heterocyclic compounds and methods of use” (Genentech, Inc., priority 2008, dated 2012)
